ChEMBL document CHEMBL1201862, “PubChem BioAssay data set” (2004)
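Dose response: 5 concentrations. Exposure: 48 h. Format: 96-well plates. Endpoint: linear interpolation; highest concentration if not reached. Abbreviation: GI50, concentration required for 50% inhibition of growth.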 The source made the active and inactive calls. Cut-off read from the data, not from the text of the source: active = GI50 up to about 1.1 µM and inactive = higher.

Key:
Assay in all cases: growth of human tumour cells (NCI), 48 h
CAKI-1 = test system: CAKI-1
MDA-N = test system: MDA-N
K562 = test system: K562
NCI-H23 = test system: NCI-H23
HCC 2998 = test system: HCC 2998
A498 = test system: A498
786-0 = test system: 786-0
SNB-19 = test system: SNB-19
NCI/ADR-RES = test system: NCI/ADR-RES
A549 = test system: A549
PC-3 = test system: PC-3
CCRF-CEM = test system: CCRF-CEM
SK-MEL-5 = test system: SK-MEL-5
EKVX = test system: EKVX
U-251 = test system: U-251
M14 = test system: M14
SNB-75 = test system: SNB-75
HCT-15 = test system: HCT-15
NCI-H460 = test system: NCI-H460
OVCAR-3 = test system: OVCAR-3
KM12 = test system: KM12
SR = test system: SR
SK-MEL-28 = test system: SK-MEL-28
SW-620 = test system: SW-620
MOLT-4 = test system: MOLT-4
DU-145 = test system: DU-145
SN12C = test system: SN12C
OVCAR-8 = test system: OVCAR-8
HCT-116 = test system: HCT-116
SK-OV-3 = test system: SK-OV-3
UACC-257 = test system: UACC-257
NCI-H226 = test system: NCI-H226
HOP-92 = test system: HOP-92
MDA-MB-435 = test system: MDA-MB-435
ACHN = test system: ACHN
UACC-62 = test system: UACC-62
SF-295 = test system: SF-295
MDA-MB-231 = test system: MDA-MB-231
COLO 205 = test system: COLO 205
IGROV-1 = test system: IGROV-1
BT-549 = test system: BT-549
HOP-62 = test system: HOP-62
RPMI-8226 = test system: RPMI-8226
OVCAR-5 = test system: OVCAR-5
LOX IMVI = test system: LOX IMVI
T47D = test system: T47D
SF-539 = test system: SF-539
SK-MEL-2 = test system: SK-MEL-2
MCF7 = test system: MCF7
UO-31 = test system: UO-31
TK-10 = test system: TK-10
OVCAR-4 = test system: OVCAR-4
SF-268 = test system: SF-268
Hs-578T = test system: Hs-578T
Malme-3M = test system: Malme-3M
HT-29 = test system: HT-29
HL-60 = test system: HL-60
NCI-H522 = test system: NCI-H522

COC(=O)[C@]12CSC[C@H]1C[C@H](c1cccc3ccccc13)N2
GI50 (CAKI-1): > 100 µM (inactive)
GI50 (MDA-N): > 100 µM (inactive)
GI50 (K562): 35.1 µM (inactive)
GI50 (NCI-H23): 91.2 µM (inactive)
GI50 (HCC 2998): > 100 µM (inactive)
GI50 (A498): > 100 µM (inactive)
GI50 (786-0): > 100 µM (inactive)
GI50 (SNB-19): > 100 µM (inactive)
GI50 (NCI/ADR-RES): > 100 µM (inactive)
GI50 (A549): 93.3 µM (inactive)
GI50 (PC-3): > 100 µM (inactive)
GI50 (CCRF-CEM): 30.2 µM (inactive)
GI50 (SK-MEL-5): > 100 µM (inactive)
GI50 (EKVX): > 100 µM (inactive)
GI50 (U-251): 69.8 µM (inactive)
GI50 (M14): > 100 µM (inactive)
GI50 (SNB-75): > 100 µM (inactive)
GI50 (HCT-15): > 100 µM
GI50 (NCI-H460): 44.3 µM (inactive)
GI50 (OVCAR-3): > 100 µM (inactive)
GI50 (KM12): > 100 µM (inactive)
GI50 (SR): 37.8 µM (inactive)
GI50 (SK-MEL-28): > 100 µM (inactive)
GI50 (SW-620): > 100 µM (inactive)
GI50 (MOLT-4): 18.2 µM (inactive)
GI50 (DU-145): 27.8 µM (inactive)
GI50 (SN12C): > 100 µM (inactive)
GI50 (OVCAR-8): > 100 µM (inactive)
GI50 (HCT-116): 51.6 µM (inactive)
GI50 (SK-OV-3): > 100 µM (inactive)
GI50 (UACC-257): > 100 µM (inactive)
GI50 (NCI-H226): 96.2 µM (inactive)
GI50 (HOP-92): > 100 µM (inactive)
GI50 (MDA-MB-435): > 100 µM (inactive)
GI50 (ACHN): 39.4 µM (inactive)
GI50 (UACC-62): > 100 µM (inactive)
GI50 (SF-295): > 100 µM (inactive)
GI50 (MDA-MB-231): > 100 µM (inactive)
GI50 (COLO 205): > 100 µM (inactive)
GI50 (IGROV-1): 43.1 µM (inactive)
GI50 (BT-549): > 100 µM (inactive)
GI50 (HOP-62): > 100 µM (inactive)
GI50 (RPMI-8226): 61.8 µM (inactive)
GI50 (OVCAR-5): > 100 µM (inactive)
GI50 (LOX IMVI): 94.6 µM (inactive)
GI50 (T47D): > 100 µM (inactive)
GI50 (SF-539): > 100 µM (inactive)
GI50 (SK-MEL-2): > 100 µM (inactive)
GI50 (MCF7): 57.7 µM (inactive)
GI50 (UO-31): > 100 µM (inactive)

CC12CCCC(C(=O)O)(C1)[C@H](C(C)(C)C(=O)O)CC2 (some centres undefined)
GI50 (CAKI-1): > 100 µM (inactive)
GI50 (MDA-N): > 100 µM (inactive)
GI50 (K562): > 100 µM (inactive)
GI50 (NCI-H23): > 100 µM (inactive)
GI50 (786-0): > 100 µM (inactive)
GI50 (SNB-19): > 100 µM (inactive)
GI50 (NCI/ADR-RES): > 100 µM (inactive)
GI50 (A549): > 100 µM (inactive)
GI50 (PC-3): > 100 µM (inactive)
GI50 (CCRF-CEM): > 100 µM (inactive)
GI50 (SK-MEL-5): > 100 µM (inactive)
GI50 (EKVX): > 100 µM (inactive)
GI50 (TK-10): > 100 µM (inactive)
GI50 (U-251): > 100 µM (inactive)
GI50 (M14): > 100 µM (inactive)
GI50 (SNB-75): > 100 µM (inactive)
GI50 (HCT-15): > 100 µM
GI50 (NCI-H460): > 100 µM (inactive)
GI50 (OVCAR-3): > 100 µM (inactive)
GI50 (KM12): > 100 µM (inactive)
GI50 (SR): > 100 µM (inactive)
GI50 (SK-MEL-28): > 100 µM (inactive)
GI50 (OVCAR-4): > 100 µM (inactive)
GI50 (SW-620): > 100 µM (inactive)
GI50 (MOLT-4): > 100 µM (inactive)
GI50 (DU-145): > 100 µM (inactive)
GI50 (SN12C): > 100 µM (inactive)
GI50 (OVCAR-8): > 100 µM (inactive)
GI50 (HCT-116): > 100 µM (inactive)
GI50 (SK-OV-3): > 100 µM (inactive)
GI50 (UACC-257): > 100 µM (inactive)
GI50 (NCI-H226): > 100 µM (inactive)
GI50 (SF-268): > 100 µM (inactive)
GI50 (HOP-92): > 100 µM (inactive)
GI50 (MDA-MB-435): > 100 µM (inactive)
GI50 (ACHN): > 100 µM (inactive)
GI50 (Hs-578T): > 100 µM (inactive)
GI50 (Malme-3M): > 100 µM (inactive)
GI50 (UACC-62): > 100 µM (inactive)
GI50 (SF-295): > 100 µM (inactive)
GI50 (COLO 205): > 100 µM (inactive)
GI50 (IGROV-1): > 100 µM (inactive)
GI50 (BT-549): > 100 µM (inactive)
GI50 (HOP-62): > 100 µM (inactive)
GI50 (RPMI-8226): > 100 µM (inactive)
GI50 (OVCAR-5): > 100 µM (inactive)
GI50 (LOX IMVI): > 100 µM (inactive)
GI50 (T47D): > 100 µM (inactive)
GI50 (SK-MEL-2): > 100 µM (inactive)
GI50 (HT-29): > 100 µM (inactive)
GI50 (MCF7): > 100 µM (inactive)
GI50 (HL-60): > 100 µM (inactive)
GI50 (UO-31): > 100 µM (inactive)
GI50 (NCI-H522): > 100 µM (inactive)
